From patent US11427553B2, “Dihydrooxadiazinones” (Bayer Aktiengesellschaft, priority 2017, dated 2022)

What was measured:
[1] = biological target: human full length PDE3B (Homo sapiens (Human), UniProt Q13370); assay: Assay 5 PDE3B enzyme inhibition (3H-cAMP SPA); format: biochemical; settings: Sf9 cell extract
How it was run: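 Hydrolysis of tritiated cAMP by Sf9-expressed full-length human PDE3B proceeded 60 min at room temperature in Tris buffer pH 7.5 containing Mg2+, EDTA and BSA, with enzyme dilution keeping substrate consumption below 70%. IC50 derived from percent activity versus log compound concentration.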

[2] = biological target: human full length PDE3A (Homo sapiens (Human), UniProt Q14432); assay: Assay 4 PDE3A enzyme inhibition (3H-cAMP SPA); format: biochemical; settings: Sf9 cell extract
Chain of human full length PDE3A (Q14432 whole entry): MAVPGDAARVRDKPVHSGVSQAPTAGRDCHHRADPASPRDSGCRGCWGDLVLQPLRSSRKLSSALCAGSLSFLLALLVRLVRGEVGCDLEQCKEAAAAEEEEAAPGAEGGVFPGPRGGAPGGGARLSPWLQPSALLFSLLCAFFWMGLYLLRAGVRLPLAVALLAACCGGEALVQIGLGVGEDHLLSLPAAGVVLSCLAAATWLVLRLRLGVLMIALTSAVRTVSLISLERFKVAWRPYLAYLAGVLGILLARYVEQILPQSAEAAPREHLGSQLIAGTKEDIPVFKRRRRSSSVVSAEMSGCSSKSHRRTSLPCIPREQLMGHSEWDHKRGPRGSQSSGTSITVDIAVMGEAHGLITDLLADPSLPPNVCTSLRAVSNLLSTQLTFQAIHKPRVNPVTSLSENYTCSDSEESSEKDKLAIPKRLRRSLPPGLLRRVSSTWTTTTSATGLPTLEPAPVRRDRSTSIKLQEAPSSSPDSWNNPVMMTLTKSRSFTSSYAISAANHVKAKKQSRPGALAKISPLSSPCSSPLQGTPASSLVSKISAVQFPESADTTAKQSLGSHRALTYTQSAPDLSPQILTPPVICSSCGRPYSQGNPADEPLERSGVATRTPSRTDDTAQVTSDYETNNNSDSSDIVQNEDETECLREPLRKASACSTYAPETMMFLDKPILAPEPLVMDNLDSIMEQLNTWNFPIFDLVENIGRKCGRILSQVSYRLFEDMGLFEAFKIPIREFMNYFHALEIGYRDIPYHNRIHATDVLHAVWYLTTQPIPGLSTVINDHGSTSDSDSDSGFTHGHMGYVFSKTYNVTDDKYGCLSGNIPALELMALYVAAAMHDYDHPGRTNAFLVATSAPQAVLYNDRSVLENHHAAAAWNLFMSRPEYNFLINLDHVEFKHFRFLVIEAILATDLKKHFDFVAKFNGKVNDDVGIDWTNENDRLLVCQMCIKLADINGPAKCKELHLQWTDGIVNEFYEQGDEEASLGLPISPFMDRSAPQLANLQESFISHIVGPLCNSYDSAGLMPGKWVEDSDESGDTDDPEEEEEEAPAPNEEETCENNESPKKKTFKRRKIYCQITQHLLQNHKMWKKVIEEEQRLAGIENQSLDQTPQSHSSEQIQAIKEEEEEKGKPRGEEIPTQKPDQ
How it was run: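 In this SPA format, the 60-min room-temperature reaction used 0.025 μCi [8-3H]cAMP and diluted full-length PDE3A from Sf9 cells. Percentage activity was plotted against log compound concentration to derive IC50.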

[3] = system: SK-MEL-3 cells; assay: Assay 1 cell proliferation measurement (CTG, 72 h), SK-MEL-3; format: cell-based, human; settings: Homo sapiens, SK-MEL3; Assay 1, 72 h, Cell Titer Glo; read-out: SK-MEL-3 IC50 [nM] (melanoma)
Protocol: Cell Proliferation Measurement
The antiproliferative activity of the compounds of the general formula (I) was examined in vitro in human cancer cells. For this purpose, the appropriate number of cells (Hela: 800; SK-MEL-3: 1000; A549: 800) were plated in 384-well plates with appropriate growth medium ((A549: DMEM/Ham's F12 (Biochrom; #FG 4815 with stabile Glutamine), FCS 10% final (Biochrom; #S 0415); Hela: DMEM/Ham's F12 (Biochrom; #FG 4815 with stabile Glutamine), FCS 10% final (Biochrom; #S 0415); SK-MEL-3: McCoy's 5A (Biochrom; #F 1015), FCS 10% final (Biochrom; #S 0415), L-Alanyl-L-Glutamine final: 2 mM, (Biochrom; #K 0302)) and incubated at 37° C. overnight. After 24 h, cells on one plate (0 h plate) were treated with 30 μl/cavity of CTG solution (Promega Cell Titer Glo (catalogue #G755B and G756B)) and incubated at room temperature for 10 min, and luminescence was measured by means of a VICTOR V (Perkin Elmer), in order to determine cell viability on commencement of treatment. The cells on the test plate were treated with the compounds of the general formula (I) as and incubated at 37° C. for 72 h. The compounds were added to the cells by means of an HP D300 digital dispenser in a 10-step 2.5-fold dilution series generally starting at a maximum final drug concentration of 100 nM. As control, the cells were treated with vehicle (DMSO at 0.3% final concentration). After 72 h, the cells were treated with 30 μl/cavity of CTG solution (Promega Cell Titer Glo (catalogue #G755B and G756B)) and incubated at room temperature for 10 min. and luminescence was measured by means of a VICTOR V (Perkin Elmer), in order to determine cell viability at the end of treatment. The percentage effect on cell growth and the IC50 derived therefrom were determined for each test substance using the values from the 0 h plate […] and the DMSO control […]. The IC50 values were calculated using a 4-parameter fit.

[4] = system: HeLa cells; assay: Assay 1 cell proliferation measurement (CTG, 72 h), HeLa; format: cell-based, human; settings: Homo sapiens, HeLa; Assay 1, 72 h, Cell Titer Glo; read-out: HeLa IC50 [nM] (Cervical cancer)
How it was run: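 Growth inhibition relative to a 0 h baseline plate and 0.3% DMSO control, with IC50 fitted by 4-parameter curve. Compound exposure lasted 72 h at 37 °C across a 2.5-fold, 10-step series starting generally at 100 nM final.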

Chain of human full length PDE3B (Q13370 whole entry): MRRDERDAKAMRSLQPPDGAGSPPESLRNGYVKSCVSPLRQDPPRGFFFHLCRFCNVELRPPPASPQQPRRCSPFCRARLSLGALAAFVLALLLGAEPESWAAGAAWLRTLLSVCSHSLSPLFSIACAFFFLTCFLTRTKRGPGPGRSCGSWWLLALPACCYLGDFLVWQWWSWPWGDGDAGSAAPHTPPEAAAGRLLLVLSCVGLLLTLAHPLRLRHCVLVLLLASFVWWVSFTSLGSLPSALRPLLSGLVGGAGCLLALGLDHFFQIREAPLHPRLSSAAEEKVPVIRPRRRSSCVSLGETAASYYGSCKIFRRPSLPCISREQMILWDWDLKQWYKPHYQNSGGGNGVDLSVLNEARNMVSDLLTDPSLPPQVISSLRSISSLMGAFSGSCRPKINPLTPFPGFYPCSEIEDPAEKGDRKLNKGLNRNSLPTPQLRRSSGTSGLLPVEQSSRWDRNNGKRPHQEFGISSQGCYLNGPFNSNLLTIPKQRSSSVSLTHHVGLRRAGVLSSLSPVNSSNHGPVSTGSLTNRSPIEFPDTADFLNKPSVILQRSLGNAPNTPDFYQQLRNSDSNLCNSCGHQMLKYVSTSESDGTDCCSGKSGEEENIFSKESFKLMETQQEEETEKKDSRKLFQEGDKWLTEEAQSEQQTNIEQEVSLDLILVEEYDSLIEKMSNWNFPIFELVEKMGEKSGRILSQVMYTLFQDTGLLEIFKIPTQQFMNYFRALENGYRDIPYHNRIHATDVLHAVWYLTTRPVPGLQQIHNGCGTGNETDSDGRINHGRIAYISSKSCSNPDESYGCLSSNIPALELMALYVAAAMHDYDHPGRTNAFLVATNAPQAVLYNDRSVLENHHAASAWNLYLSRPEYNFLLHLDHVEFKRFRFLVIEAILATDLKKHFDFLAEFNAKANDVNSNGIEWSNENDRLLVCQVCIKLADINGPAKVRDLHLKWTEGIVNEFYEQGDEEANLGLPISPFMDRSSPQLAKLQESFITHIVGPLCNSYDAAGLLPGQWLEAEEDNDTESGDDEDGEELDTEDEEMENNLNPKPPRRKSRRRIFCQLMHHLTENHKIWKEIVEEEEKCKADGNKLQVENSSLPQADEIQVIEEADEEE

Row | SMILES | IC50 [1] | IC50 [2] | IC50 [3] | IC50 [4]
1 | O=C1NN=C(c2ccc(-c3cc(F)c(F)cc3F)c(F)c2)CO1 [Example 98, 5-(2,2′,4′,5′-Tetrafluoro[1,1′-biphenyl]-4-yl)-3,6-dihydro-2H-1,3,4-oxadiazin-2-one] | 120 nM | 100 nM | 8 nM | 5 nM
2 | NC1CCCC(Nc2ccc(C3=NNC(=O)OC3)cc2C(F)(F)F)C1 (mixture of isomers) [Example 322, 5-[4-{[3-aminocyclohexyl]amino}-3-(trifluoromethyl)phenyl]-3,6-dihydro-2H-1,3,4-oxadiazin-2-one (mixture of stereoisomers)] | 780 nM | 580 nM | > 100 nM | > 100 nM
3 | Cc1cc(C2=NNC(=O)OC2)ccc1C1=CCOCC1 [Example 10, 5-[4-(3,6-Dihydro-2H-pyran-4-yl)-3-methylphenyl]-3,6-dihydro-2H-1,3,4-oxadiazin-2-one] | 230 nM | 220 nM | 43 nM | 15 nM
4 | Cc1ccc(-c2ccc(C3=NNC(=O)OC3)cc2C(F)(F)F)cc1N [Example 42, 5-[3′-Amino-4′-methyl-2-(trifluoromethyl)biphenyl-4-yl]-3,6-dihydro-2H-1,3,4-oxadiazin-2-one] | 250 nM | 170 nM | 64 nM | 55 nM
5 | CC(C)CNc1ccc(C2=NNC(=O)OC2)cc1C(F)(F)F [Example 221, 5-{4-[(2-Methylpropyl)amino]-3-(trifluoromethyl)phenyl}-3,6-dihydro-2H-1,3,4-oxadiazin-2-one] | 56 nM | 28 nM | 2 nM | 1 nM
6 | O=C1NN=C(c2ccc(-c3ccccc3F)c(C(F)(F)F)c2)CO1 [Example 155, 5-[2′-Fluoro-2-(trifluoromethyl)[1,1′-biphenyl]-4-yl]-3,6-dihydro-2H-1,3,4-oxadiazin-2-one] | 110 nM | 92 nM | 17 nM | 9 nM
7 | CC(C)Nc1ccc(C2=NNC(=O)OC2)cc1C(F)(F)F [Example 137, 5-[4-(Propan-2-ylamino)-3-(trifluoromethyl)phenyl]-3,6-dihydro-2H-1,3,4-oxadiazin-2-one] | 88 nM | 52 nM | 3 nM | 1 nM
8 | C[C@@H]1OC(=O)NN=C1c1ccc(-c2ccccc2F)c(C(F)(F)F)c1 [Example 179, (6S)-5-[2′-Fluoro-2-(trifluoromethyl)[1,1′-biphenyl]-4-yl]-6-methyl-3,6-dihydro-2H-1,3,4-oxadiazin-2-one] | 110 nM | 140 nM | 15 nM | 8 nM
9 | O=C1NN=C(c2ccc(N[C@H]3CC[C@H](O)CC3)c(C(F)(F)F)c2)CO1 [Example 211, (trans)-5-[4-{[4-Hydroxycyclohexyl]amino}-3-(trifluoromethyl)phenyl]-3,6-dihydro-2H-1,3,4-oxadiazin-2-one] | 54 nM | 29 nM | 2 nM | 2 nM
10 | Nc1ccc(-c2ccc(C3=NNC(=O)OC3)cc2F)cc1 [Example 80, 5-(4′-Amino-2-fluorobiphenyl-4-yl)-3,6-dihydro-2H-1,3,4-oxadiazin-2-one] | 87 nM | 34 nM | 6 nM | 2 nM
11 | Cc1ccc(-c2ccc(C3=NNC(=O)OC3)cc2C(F)F)cn1 [Example 200, 5-[3-(Difluoromethyl)-4-(6-methylpyridin-3-yl)phenyl]-3,6-dihydro-2H-1,3,4-oxadiazin-2-one] | 66 nM | 34 nM | 22 nM | 10 nM
12 | O=C1NN=C(c2ccc(-c3ccncc3)c(F)c2)CO1 [Example 93, 5-[3-Fluoro-4-(pyridin-4-yl)phenyl]-3,6-dihydro-2H-1,3,4-oxadiazin-2-one] | 100 nM | 50 nM | 13 nM | 7 nM
13 | Cc1ccc(-c2ccc(C3=NNC(=O)OC3)cc2F)c(C)c1 [Example 112, 5-(2-Fluoro-2′,4′-dimethyl[1,1′-biphenyl]-4-yl)-3,6-dihydro-2H-1,3,4-oxadiazin-2-one] | 230 nM | 170 nM | 10 nM | 6 nM
14 | N#Cc1ccc(-c2ccc(C3=NNC(=O)OC3)cc2F)cc1 [Example 101, 2′-Fluoro-4′-(2-oxo-3,6-dihydro-2H-1,3,4-oxadiazin-5-yl)[1,1′-biphenyl]-4-carbonitrile] | 39 nM | 28 nM | 4 nM | 2 nM
15 | O=C1NN=C(c2ccc([C@H]3CC[C@H](O)CC3)c(C(F)(F)F)c2)CO1 [Example 272, (trans)-5-{4-[4-hydroxycyclohexyl]-3-(trifluoromethyl)phenyl}-3,6-dihydro-2H-1,3,4-oxadiazin-2-one] | 10 nM | 19 nM | 1 nM | 1 nM
16 | Cc1ncccc1-c1ccc(C2=NNC(=O)OC2)cc1F [Example 96, 5-[3-Fluoro-4-(2-methylpyridin-3-yl)phenyl]-3,6-dihydro-2H-1,3,4-oxadiazin-2-one] | 110 nM | 50 nM | 40 nM | 18 nM
17 | O=C1NN=C(c2ccc(-c3ccc4nccn4c3)c(C(F)(F)F)c2)CO1 [Example 143, 5-[4-(Imidazo[1,2-a]pyridin-6-yl)-3-(trifluoromethyl)phenyl]-3,6-dihydro-2H-1,3,4-oxadiazin-2-one] | 83 nM | 38 nM | 30 nM | 15 nM
18 | Cc1cc(-c2ccc(C3=NNC(=O)OC3)cc2F)ccn1 [Example 79, 5-[3-Fluoro-4-(2-methylpyridin-4-yl)phenyl]-3,6-dihydro-2H-1,3,4-oxadiazin-2-one] | 71 nM | 29 nM | 25 nM | 12 nM
19 | O=C1NN=C(c2ccc(-c3csc(C(F)(F)F)c3)c(C(F)(F)F)c2)CO1 [Example 145, 5-{3-(Trifluoromethyl)-4-[5-(trifluoromethyl)thiophen-3-yl]phenyl}-3,6-dihydro-2H-1,3,4-oxadiazin-2-one] | 410 nM | 240 nM | 47 nM | 27 nM
20 | C[C@@H]1OC(=O)NN=C1c1ccc(-c2ccccc2C#N)c(C(F)(F)F)c1 [Example 172, 4′-[(6S)-6-Methyl-2-oxo-3,6-dihydro-2H-1,3,4-oxadiazin-5-yl]-2′-(trifluoromethyl)[1,1′-biphenyl]-2-carbonitrile] | 520 nM | 290 nM | 48 nM | 37 nM
21 | O=C1NN=C(c2ccc(-c3ccc(C(F)(F)F)cc3)c(C(F)(F)F)c2)CO1 [Example 51, 5-[2,4′-Bis(trifluoromethyl)biphenyl-4-yl]-3,6-dihydro-2H-1,3,4-oxadiazin-2-one] | > 1000 nM | > 1000 nM | 49 nM | 30 nM
22 | O=C1NN=C(c2ccc(NC3CC(O)C3)c(C(F)(F)F)c2)CO1 (mixture of isomers) [Example 206, (cis/trans)-5-[4-{[3-hydroxycyclobutyl]amino}-3-(trifluoromethyl)phenyl]-3,6-dihydro-2H-1,3,4-oxadiazin-2-one] | 20 nM | 15 nM | 1 nM | 0.5 nM
23 | O=C1NN=C(c2ccc(-c3ccc(F)nc3)c(F)c2)CO1 [Example 77, 5-[3-Fluoro-4-(6-fluoropyridin-3-yl)phenyl]-3,6-dihydro-2H-1,3,4-oxadiazin-2-one] | 83 nM | 33 nM | 16 nM | 8 nM
24 | O=C1NN=C(c2ccc(-c3ccc(F)cc3Cl)c(F)c2)CO1 [Example 82, 5-(2′-Chloro-2,4′-difluorobiphenyl-4-yl)-3,6-dihydro-2H-1,3,4-oxadiazin-2-one] | 320 nM | 200 nM | 9 nM | 4 nM
